ChEMBL document CHEMBL4414679, “Discovery of 4,6-pyrimidinediamine derivatives as novel dual EGFR/FGFR inhibitors aimed EGFR/FGFR1-positive NSCLC” (Eur J Med Chem, 2020)
The source made the active and inactive calls. No cut-off for these calls is given here.

How the values were obtained:
NCI-H520 = assay: Antiproliferative activity against human NCI-H520 cells incubated for 48 hrs by MTT assay; assay type: functional, cell-based; conditions: NCI-H520, 48 h
NCI-H226 [1] = assay: Induction of apoptosis in human NCI-H226 cells assessed as early apoptotic cells at 10 uM measured after 24 hrs by Annexin-V/propidium iodide staining-based flow cytometric analysis (reference value: 0.8%); assay type: functional
[2] = molecular target: Epidermal growth factor receptor (Homo sapiens, UniProt P00533, L858R); assay: Inhibition of recombinant human EGFR L858R mutant expressed in baculovirus using FAM-labelled peptide as substrate pre-incubated for 10 mins followed by substrate addition by mobility shift assay
Chain of Epidermal growth factor receptor (Homo sapiens, UniProt P00533, L858R) (P00533 25-1210 L858R limits assumed): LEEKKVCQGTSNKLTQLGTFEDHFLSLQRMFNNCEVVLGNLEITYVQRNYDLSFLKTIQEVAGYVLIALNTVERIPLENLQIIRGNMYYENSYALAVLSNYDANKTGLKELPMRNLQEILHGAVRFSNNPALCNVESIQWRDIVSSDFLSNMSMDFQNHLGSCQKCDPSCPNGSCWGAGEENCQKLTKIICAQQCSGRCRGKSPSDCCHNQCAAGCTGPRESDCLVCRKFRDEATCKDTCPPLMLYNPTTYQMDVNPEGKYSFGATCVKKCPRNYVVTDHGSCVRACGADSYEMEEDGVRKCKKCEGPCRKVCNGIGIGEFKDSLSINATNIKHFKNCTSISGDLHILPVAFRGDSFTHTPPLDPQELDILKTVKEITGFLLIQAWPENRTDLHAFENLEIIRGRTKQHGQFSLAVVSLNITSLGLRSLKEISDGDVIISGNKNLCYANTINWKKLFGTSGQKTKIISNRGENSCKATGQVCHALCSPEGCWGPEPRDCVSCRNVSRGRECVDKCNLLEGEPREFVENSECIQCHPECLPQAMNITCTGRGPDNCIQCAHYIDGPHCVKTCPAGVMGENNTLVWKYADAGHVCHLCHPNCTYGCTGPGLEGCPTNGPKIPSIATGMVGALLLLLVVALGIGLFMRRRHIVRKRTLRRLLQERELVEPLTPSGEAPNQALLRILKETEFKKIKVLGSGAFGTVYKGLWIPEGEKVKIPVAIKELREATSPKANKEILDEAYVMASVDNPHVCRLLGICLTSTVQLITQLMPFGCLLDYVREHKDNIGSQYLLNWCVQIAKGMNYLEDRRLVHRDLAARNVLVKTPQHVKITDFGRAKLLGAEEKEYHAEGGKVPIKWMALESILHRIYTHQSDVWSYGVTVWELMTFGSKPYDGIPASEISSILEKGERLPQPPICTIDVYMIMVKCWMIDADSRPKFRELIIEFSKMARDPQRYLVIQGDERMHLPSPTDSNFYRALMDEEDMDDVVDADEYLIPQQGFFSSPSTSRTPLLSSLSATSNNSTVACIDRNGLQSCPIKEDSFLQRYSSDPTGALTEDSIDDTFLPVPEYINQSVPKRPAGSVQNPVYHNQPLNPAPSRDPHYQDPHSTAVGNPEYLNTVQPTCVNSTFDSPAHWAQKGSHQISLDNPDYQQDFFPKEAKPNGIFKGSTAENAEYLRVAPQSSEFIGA

[3] = Induction of apoptosis in gefitinib-insensitive human HCC827GR cells assessed as late apoptotic cells at 10 uM measured after 24 hrs by Annexin-V/propidium iodide staining-based flow cytometric analysis (reference value: 1.5%); assay type: functional
[4] = molecular target: Proto-oncogene tyrosine-protein kinase Src (Homo sapiens) (UniProt P12931); assay: Inhibition of full length N-terminal GST-tagged human SRC (1 to 536 AA) expressed in baculovirus at 10 uM using FAM-labelled peptide as substrate pre-incubated for 10 mins followed by substrate addition by mobility shift assay relative to control
[5] = molecular target: T1, Epidermal growth factor receptor (Homo sapiens, UniProt P00533); assay: Inhibition of N-terminal GST-tagged human EGFR cytoplasmic domain (669-1210 AA) expressed in baculovirus using FAM-labelled peptide as substrate pre-incubated for 10 mins followed by substrate addition by mobility shift assay
T1 sequence (P00533 whole entry, the tested form may be a part): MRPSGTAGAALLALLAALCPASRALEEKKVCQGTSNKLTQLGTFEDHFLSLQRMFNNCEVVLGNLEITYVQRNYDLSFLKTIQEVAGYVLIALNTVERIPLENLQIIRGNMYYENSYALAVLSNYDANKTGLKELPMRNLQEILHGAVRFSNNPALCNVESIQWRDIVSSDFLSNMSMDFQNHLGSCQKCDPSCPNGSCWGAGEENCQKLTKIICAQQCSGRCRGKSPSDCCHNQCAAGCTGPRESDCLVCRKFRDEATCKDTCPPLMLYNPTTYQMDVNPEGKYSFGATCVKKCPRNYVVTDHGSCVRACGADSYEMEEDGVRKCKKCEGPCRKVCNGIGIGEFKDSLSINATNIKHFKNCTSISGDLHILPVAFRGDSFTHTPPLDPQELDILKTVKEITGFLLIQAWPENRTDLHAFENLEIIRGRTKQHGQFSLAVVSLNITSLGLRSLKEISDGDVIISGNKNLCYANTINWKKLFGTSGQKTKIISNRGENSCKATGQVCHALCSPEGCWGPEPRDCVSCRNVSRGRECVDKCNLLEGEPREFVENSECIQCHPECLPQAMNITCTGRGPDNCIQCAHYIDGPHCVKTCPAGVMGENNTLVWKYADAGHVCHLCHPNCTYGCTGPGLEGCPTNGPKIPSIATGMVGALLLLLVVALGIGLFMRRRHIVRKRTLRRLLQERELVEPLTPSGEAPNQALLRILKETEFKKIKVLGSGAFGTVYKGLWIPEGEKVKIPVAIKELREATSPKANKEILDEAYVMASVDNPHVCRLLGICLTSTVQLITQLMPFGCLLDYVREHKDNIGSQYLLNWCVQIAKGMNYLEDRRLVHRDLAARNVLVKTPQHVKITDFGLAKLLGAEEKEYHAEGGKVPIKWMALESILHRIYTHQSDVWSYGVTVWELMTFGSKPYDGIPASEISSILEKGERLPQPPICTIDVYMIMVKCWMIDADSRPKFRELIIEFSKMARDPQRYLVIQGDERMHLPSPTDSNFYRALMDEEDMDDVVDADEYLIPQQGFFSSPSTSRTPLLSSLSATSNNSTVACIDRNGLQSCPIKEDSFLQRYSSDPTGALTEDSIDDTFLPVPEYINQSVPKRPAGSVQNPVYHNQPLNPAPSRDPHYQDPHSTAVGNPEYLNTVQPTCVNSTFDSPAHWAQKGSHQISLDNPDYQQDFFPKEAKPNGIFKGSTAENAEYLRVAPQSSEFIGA

[6] = molecular target: Mitogen-activated protein kinase 8 (Homo sapiens) (UniProt P45983); assay: Inhibition of human full length His-tagged JNK1 expressed in baculovirus expression system at 10 uM using FAM-labelled peptide as substrate pre-incubated for 10 mins followed by substrate addition by mobility shift assay relative to control
Chain of Mitogen-activated protein kinase 8 (Homo sapiens) (P45983 whole entry, the tested form may be a part): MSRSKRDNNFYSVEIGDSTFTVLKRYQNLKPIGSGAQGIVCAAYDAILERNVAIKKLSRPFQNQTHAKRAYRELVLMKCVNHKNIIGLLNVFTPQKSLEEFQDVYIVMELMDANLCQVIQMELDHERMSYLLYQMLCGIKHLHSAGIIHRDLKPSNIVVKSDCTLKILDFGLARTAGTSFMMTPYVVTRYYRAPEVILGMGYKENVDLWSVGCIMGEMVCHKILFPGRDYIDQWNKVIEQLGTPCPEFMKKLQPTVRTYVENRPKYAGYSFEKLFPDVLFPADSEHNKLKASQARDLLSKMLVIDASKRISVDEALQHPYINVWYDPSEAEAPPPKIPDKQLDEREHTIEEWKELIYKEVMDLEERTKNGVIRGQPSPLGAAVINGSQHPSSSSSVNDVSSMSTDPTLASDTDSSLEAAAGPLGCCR

[7] = molecular target: Fibroblast growth factor receptor 3 (Homo sapiens) (UniProt P22607); assay: Inhibition of N-terminal GST tagged human FGFR3 cytoplasmic domain (436 to 806 AA) expressed in baculovirus at 10 uM using FAM-labelled peptide as substrate pre-incubated for 10 mins followed by substrate addition by mobility shift assay relative to control
Chain of Fibroblast growth factor receptor 3 (Homo sapiens) (P22607 23-806 limits assumed): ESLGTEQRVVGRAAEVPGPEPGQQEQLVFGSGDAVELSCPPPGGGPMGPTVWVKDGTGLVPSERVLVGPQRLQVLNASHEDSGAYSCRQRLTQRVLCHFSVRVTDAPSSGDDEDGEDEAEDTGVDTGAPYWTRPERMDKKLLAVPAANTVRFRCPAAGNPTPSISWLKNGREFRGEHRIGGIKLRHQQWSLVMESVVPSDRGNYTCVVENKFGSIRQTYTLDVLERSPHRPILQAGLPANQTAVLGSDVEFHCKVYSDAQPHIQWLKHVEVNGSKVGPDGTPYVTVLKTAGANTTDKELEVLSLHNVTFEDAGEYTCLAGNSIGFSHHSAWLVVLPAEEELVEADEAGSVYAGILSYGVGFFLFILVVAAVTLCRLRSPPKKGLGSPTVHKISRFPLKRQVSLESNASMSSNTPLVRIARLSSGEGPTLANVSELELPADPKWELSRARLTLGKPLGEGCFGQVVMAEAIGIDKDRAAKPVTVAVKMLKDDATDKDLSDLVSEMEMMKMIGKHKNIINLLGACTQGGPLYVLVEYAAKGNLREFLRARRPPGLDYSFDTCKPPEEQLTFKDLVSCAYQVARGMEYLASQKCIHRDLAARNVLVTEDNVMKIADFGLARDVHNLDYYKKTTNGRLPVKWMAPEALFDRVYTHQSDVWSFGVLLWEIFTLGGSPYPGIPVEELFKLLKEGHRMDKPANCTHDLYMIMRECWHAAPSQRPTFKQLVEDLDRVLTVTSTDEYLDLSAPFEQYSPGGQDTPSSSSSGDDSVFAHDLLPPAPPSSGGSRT

[8] = Half-life in Sprague-Dawley rat at 30 mg/kg, po measured upto 24 hrs by UPLC-MS/MS; assay type: ADME, organism-based; conditions: in vivo
NCI-H226 [9] = assay: Antiproliferative activity against human NCI-H226 cells incubated for 48 hrs by MTT assay; assay type: functional, cell-based; conditions: NCI-H226, 48 h
[10] = molecular target: Mitogen-activated protein kinase 3 (Homo sapiens) (UniProt P27361); assay: Inhibition of full length N-terminal GST-tagged human ERK1 (1 to 379 AA) expressed in Escherichia coli at 10 uM using FAM-labelled peptide as substrate pre-incubated for 10 mins followed by substrate addition by mobility shift assay relative to control
Chain of Mitogen-activated protein kinase 3 (Homo sapiens) (P27361 whole entry, the tested form may be a part): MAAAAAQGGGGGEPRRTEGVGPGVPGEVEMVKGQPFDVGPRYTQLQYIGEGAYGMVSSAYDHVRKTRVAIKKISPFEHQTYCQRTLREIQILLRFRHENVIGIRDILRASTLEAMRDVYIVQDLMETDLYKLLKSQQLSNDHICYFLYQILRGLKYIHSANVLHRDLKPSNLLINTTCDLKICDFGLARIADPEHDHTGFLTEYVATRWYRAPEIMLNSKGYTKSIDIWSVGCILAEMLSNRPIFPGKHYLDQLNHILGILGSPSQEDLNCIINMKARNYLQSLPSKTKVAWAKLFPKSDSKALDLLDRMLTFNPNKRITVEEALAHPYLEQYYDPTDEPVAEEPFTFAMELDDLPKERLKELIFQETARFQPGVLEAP

[11] = molecular target: T1, Epidermal growth factor receptor; assay: Inhibition of N-terminal GST-tagged human EGFR (d746-750AA) expressed in baculovirus at 10 uM using FAM-labelled peptide as substrate pre-incubated for 10 mins followed by substrate addition by mobility shift assay relative to control
[12] = Antiproliferative activity against gefitinib-resistant human HCC827GR cells incubated for 48 hrs by MTT assay; assay type: functional
NCI-H226 [13] = assay: Induction of apoptosis in human NCI-H226 cells assessed as viable cells at 1 uM measured after 24 hrs by Annexin-V/propidium iodide staining-based flow cytometric analysis (reference value: 93.4%); assay type: functional; conditions: NCI-H226, 24 h, read-out: Activity
NCI-H226 [14] = assay: Induction of apoptosis in human NCI-H226 cells assessed as viable cells at 5 uM measured after 24 hrs by Annexin-V/propidium iodide staining-based flow cytometric analysis (reference value: 93.4%); assay type: functional; conditions: NCI-H226, 24 h, read-out: Activity
[15] = molecular target: RAC-beta serine/threonine-protein kinase (Homo sapiens) (UniProt P31751); assay: Inhibition of N-terminal GST tagged human AKT2 catalytic domain (120 to 481 AA) expressed in baculovirus at 10 uM using FAM-labelled peptide as substrate pre-incubated for 10 mins followed by substrate addition by mobility shift assay relative to control
Chain of RAC-beta serine/threonine-protein kinase (Homo sapiens) (P31751 whole entry, the tested form may be a part): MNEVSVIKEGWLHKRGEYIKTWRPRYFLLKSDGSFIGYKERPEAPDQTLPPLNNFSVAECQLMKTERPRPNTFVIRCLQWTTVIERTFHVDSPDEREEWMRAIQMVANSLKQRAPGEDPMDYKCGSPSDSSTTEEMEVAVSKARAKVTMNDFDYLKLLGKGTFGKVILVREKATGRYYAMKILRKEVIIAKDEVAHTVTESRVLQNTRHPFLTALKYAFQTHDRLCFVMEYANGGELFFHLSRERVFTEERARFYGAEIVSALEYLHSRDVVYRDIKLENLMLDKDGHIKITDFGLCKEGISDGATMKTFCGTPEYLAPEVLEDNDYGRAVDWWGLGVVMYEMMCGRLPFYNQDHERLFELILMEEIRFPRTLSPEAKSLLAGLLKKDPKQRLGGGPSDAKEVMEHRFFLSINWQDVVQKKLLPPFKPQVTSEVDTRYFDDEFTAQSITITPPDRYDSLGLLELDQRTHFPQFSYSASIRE

NCI-H1581 = assay: Antiproliferative activity against human NCI-H1581 cells incubated for 48 hrs by MTT assay; assay type: functional, cell-based; conditions: NCI-H1581, 48 h
[16] = molecular target: CDK2/Cyclin A2 (Homo sapiens) (UniProt P24941+P20248); assay: Inhibition of CDK2/cyclin A2 (unknown origin) at 10 uM using FAM-labelled peptide as substrate pre-incubated for 10 mins followed by substrate addition by mobility shift assay relative to control; assay type: protein-complex assay
[17] = molecular target: T1, Epidermal growth factor receptor; assay: Inhibition of EGF-induced EGFR phosphorylation in serum-starved human HCC827 cells upto 10 uM incubated for 1 hr by Western blot analysis; assay type: cell-based
[18] = Induction of apoptosis in gefitinib-insensitive human HCC827GR cells assessed as necrotic cells at 10 uM measured after 24 hrs by Annexin-V/propidium iodide staining-based flow cytometric analysis (reference value: 5.8%); assay type: functional
[19] = Induction of apoptosis in gefitinib-insensitive human HCC827GR cells assessed as viable cells at 5 uM measured after 24 hrs by Annexin-V/propidium iodide staining-based flow cytometric analysis (reference value: 90.8%); assay type: functional; conditions: read-out: Activity
[20] = AUC (0 to 24 hrs) in Sprague-Dawley rat at 30 mg/kg, po measured upto 24 hrs by UPLC-MS/MS; assay type: ADME, organism-based; design: time < 24 hr, dose 30 mg/kg, route oral; conditions: in vivo
Mus musculus = assay: Down regulation of EGFR phosphorylation in BALB/c nude mouse xenografted with human HCC827GR cells at 15 mg/kg, ip dosed by western blot analysis; assay type: functional, organism-based
[21] = Cmax in Sprague-Dawley rat at 30 mg/kg, po measured upto 24 hrs by UPLC-MS/MS; assay type: ADME, organism-based; design: dose 30 mg/kg, route oral; conditions: in vivo
[22] = molecular target: CDK6/cyclin D3 (Homo sapiens) (UniProt P30281+Q00534); assay: Inhibition of N-terminal GST tagged truncated human CDK6 (1 to 326 AA) coexpressed with CyclinD3 (1 to 292 AA) in baculovirus at 10 uM using FAM-labelled peptide as substrate pre-incubated for 10 mins followed by substrate addition by mobility shift assay relative to control; assay type: protein-complex assay
[23] = molecular target: T1, Epidermal growth factor receptor; assay: Inhibition of EGFR in gefitinib-insensitive human HCC827GR cells assessed as reduction in EGF-induced Akt phosphorylation upto 10 uM measured after 2 hrs by western blot analysis
[24] = molecular target: Cyclin-dependent kinase 1/cyclin B1 (Homo sapiens) (UniProt P06493+P14635); assay: Inhibition of CDC2/cyclinB1 (unknown origin) at 10 uM using FAM-labelled peptide as substrate pre-incubated for 10 mins followed by substrate addition by mobility shift assay relative to control; assay type: protein-complex assay
[25] = molecular target: Mitogen-activated protein kinase 1 (Homo sapiens) (UniProt P28482); assay: Inhibition of full length N-terminal GST-tagged human ERK2 (1 to 360 AA) expressed in Escherichia coli at 10 uM using FAM-labelled peptide as substrate pre-incubated for 10 mins followed by substrate addition by mobility shift assay relative to control
Chain of Mitogen-activated protein kinase 1 (Homo sapiens) (P28482 whole entry, the tested form may be a part): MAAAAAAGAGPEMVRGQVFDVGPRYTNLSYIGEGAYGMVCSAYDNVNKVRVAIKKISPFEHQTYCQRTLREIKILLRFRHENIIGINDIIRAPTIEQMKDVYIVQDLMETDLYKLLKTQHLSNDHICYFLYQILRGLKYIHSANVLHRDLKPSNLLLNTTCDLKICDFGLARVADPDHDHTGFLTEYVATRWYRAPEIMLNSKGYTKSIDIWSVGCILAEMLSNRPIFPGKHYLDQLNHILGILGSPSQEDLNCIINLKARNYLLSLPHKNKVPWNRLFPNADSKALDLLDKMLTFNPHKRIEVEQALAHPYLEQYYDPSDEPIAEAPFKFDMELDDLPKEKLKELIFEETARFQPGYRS

[26] = Antitumor activity against human HCC827GR cells xenografted in BALB/c nude mouse assessed as reduction in tumor weight at 15 mg/kg, ip dosed every 2 days (reference value: 0.82 +/- 0.06 g); assay type: functional

With `COc1ccc(OC)c(Nc2cc(NC(=O)Nc3c(Cl)cccc3Cl)ncn2)c1` the IC50 (NCI-H520) was 3.03 µM, the Activity (NCI-H226 [1]) was 4.4% and the IC50 [2] was 39 nM. It also gave an Activity [3] of 30.1%, an inhibition [4] of 45.8% and an IC50 [5] of 202 nM. The inhibition [6] was 3.79%, the inhibition [7] was 15.8% and the half-life [8] was 424 min. The IC50 (NCI-H226 [9]) was 2260 nM, the inhibition [10] was 8.2% and the inhibition [11] was 95.8%. It also gave an IC50 [12] of 930 nM, a viability at 1 µM (NCI-H226 [13]) of 87.7% and a viability at 5 µM (NCI-H226 [14]) of 79.6%. It also gave an inhibition [15] of 12.7%, an IC50 (NCI-H1581) of 2530 nM and an inhibition [16] of 4.4%. For the same compound, the inhibition [17] was “Active”, the Activity [18] was 5.4% and the viability at 5 µM [19] was 68.9%. The AUC(0-t) at 24 h [20] was 9690 ng·h/mL, the Activity (Mus musculus) was “Active” and the Cmax [21] was 1270 ng/mL. For the same compound, the inhibition [22] was 9.31%, the inhibition [23] was “Active” and the inhibition [24] was -9.78%. It also gave an inhibition [25] of 9.1% and an Activity [26] of 0.41 g.
